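Compound exposure: 48 hours, 5 concentrations, 96-well plates. Abbreviation: GI50, concentration required for 50% inhibition of growth. TGI: total growth inhibition.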

Test in all cases: inhibition of tumour cell growth, NCI panel, 48 h
Assay [1] deals with SK-MEL-28 melanoma.
The test system of assay [2] is SK-MEL-2 melanoma.
The subject of assay [3] is SNB-19 CNS.
Assay [4] deals with IGROV1 ovarian.
The subject of assay [5] is OVCAR-3 ovarian.
In assay [6] the test system is TK-10 renal.
Assay [7] relates to UO-31 renal.
Assay [8] relates to NCI-H226 lung.
Assay [9] relates to SF-268 CNS.
In assay [10] the test system is M14 melanoma.

On to `O=C1C=CC(=O)N1c1cccc(N2C(=O)C=CC2=O)c1`, for which the GI50 in assay [1] was 1.95 µM; in assay [2], 2.52 µM; in assay [3], 18.6 µM; in assay [4], 2.38 µM; in [5], 2.04 µM; in assay [6], 1.71 µM. The GI50 in assay [7] is 1.94 µM; in [8] it was 2.91 µM; in assay [9], 7.09 µM; in [10] it was 1.85 µM. In addition, the TGI in assay [1] is 3.78 µM; in assay [2], 5.55 µM; in assay [3], 35.8 µM; in assay [4] it was 5.52 µM; in assay [5] it was 3.54 µM; in assay [6], 3.13 µM. Moreover, the TGI in assay [7] worked out at 4.11 µM; in assay [8] it was 7.63 µM; in assay [9], 19.8 µM; in assay [10], 3.71 µM.

On to `Clc1ccccc1CNc1c2ccccc2nc2ccccc12`, for which the GI50 in [1] was 2.75 µM; in assay [2] it was 3.26 µM; in assay [3] it was 2.28 µM; in assay [4] it was 1.88 µM; in assay [5], 3.39 µM; in assay [6], 3.98 µM. Besides, the GI50 was 1.35 µM in [7], 2.22 µM in [8], 2.95 µM in assay [9] and 2.04 µM in assay [10]. Moreover, the TGI was 9.21 µM in assay [1]; 12.5 µM in assay [2]; 8.96 µM in assay [3]; 8.83 µM in assay [4]; 10.5 µM in [5]; 11 µM in assay [6]. Moreover, the TGI in [7] was determined as 6.96 µM; in [8], 10.1 µM; in [9] it was 11.4 µM; in assay [10], 9.98 µM.

For `C=C1C(=O)O[C@H]2[C@H]1CC/C(COC(=O)C(C)c1ccc(CC(C)C)cc1)=C\CC[C@@]1(C)O[C@@H]21` (stereo not given in full), the GI50 in assay [1] is 1.63 µM; in [2], 1.89 µM; in assay [3] it was 1.49 µM; in assay [4], 1.07 µM; in [5] it was 1.5 µM; in [6] it was 1.74 µM. Moreover, the GI50 in assay [7] was 1.28 µM; in [8], 1.64 µM; in assay [9], 1.72 µM; in [10], 0.688 µM. In addition, the TGI is 3 µM in [1]; 3.72 µM in [2]; 2.87 µM in assay [3]; 2.33 µM in assay [4]; 2.87 µM in assay [5]; 3.19 µM in [6]. The TGI in assay [7] is 2.54 µM; in assay [8] it was 3.52 µM; in assay [9], 3.5 µM; in assay [10] it was 2.13 µM.

For `C=C(CO)[C@@H]1CC[C@]2(COC3CCCCO3)CC[C@]3(C)[C@H](CC[C@@H]4[C@@]5(C)C=C(C=O)C(=O)C(C)(C)[C@@H]5CC[C@]43C)[C@@H]12` (stereo not given in full), the GI50 in assay [1] was 0.254 µM; in [2], 0.448 µM; in assay [3] it was 0.414 µM; in assay [4], 0.231 µM; in [5], 0.207 µM; in assay [6], 0.257 µM. For the same molecule, the GI50 is 0.187 µM in assay [7], 0.538 µM in [8], 0.297 µM in [9] and 0.247 µM in assay [10]. Moreover, the TGI in assay [1] was determined as 0.688 µM; in assay [2] it was 1.82 µM; in assay [3], 1.44 µM; in [4], 0.515 µM; in [5], 0.428 µM; in assay [6] it was 0.688 µM. Moreover, the TGI in assay [7] came out at 0.433 µM; in assay [8] it was 1.47 µM; in assay [9], 0.979 µM; in assay [10], 0.672 µM.

Take `CN(C)CCNc1c2ccccc2nc2oc3ccccc3c12`: the GI50 is 11.8 µM in [1]; 12.2 µM in [2]; 6.88 µM in [3]; 4.82 µM in [4]; 8.71 µM in assay [5]; 5.86 µM in [6]. The GI50 was 4.91 µM in [7], 8.65 µM in assay [8], 5.81 µM in [9] and 11.3 µM in assay [10]. The TGI in [1] worked out at 25.3 µM; in assay [2], 31.4 µM; in [3], 34.8 µM; in assay [4] it was 26 µM; in [5], 51 µM; in assay [6], 55.5 µM. For the same molecule, the TGI in assay [7] was 46.9 µM; in assay [8], 47.1 µM; in assay [9], 27.7 µM; in [10], 32.5 µM.

Consider `CC(=O)c1c(CO[N+](=O)[O-])n([O-])c2ccccc2[n+]1=O`, for which the TGI in [1], in assay [2], in [3], in [4], in assay [5] and in assay [6] was > 100 µM in each case. For the same molecule, the TGI in assay [7], in assay [8], in [9] and in [10] was > 100 µM throughout.
